From patent US10604523B2, “1-aryl-4-methyl-[1,2,4]triazolo[4,3-a]quinoxaline derivatives” (Janssen Pharmaceutica NV, priority 2011, dated 2020)
Read-outs that look alike come from different tables or passages of the source.

Key:
[1] = molecular target: T1, Human recombinant PDE2A (hPDE2A) (Homo sapiens, UniProt O00408); assay: In vitro assay PDE2A (SPA, 3H-cGMP); type: biochemical; conditions: read-out: pIC50 PDE2 (converted)
T1 construct: made in house; host or cells: Sf9 insect cells (baculovirus)
T1 sequence (O00408 whole entry): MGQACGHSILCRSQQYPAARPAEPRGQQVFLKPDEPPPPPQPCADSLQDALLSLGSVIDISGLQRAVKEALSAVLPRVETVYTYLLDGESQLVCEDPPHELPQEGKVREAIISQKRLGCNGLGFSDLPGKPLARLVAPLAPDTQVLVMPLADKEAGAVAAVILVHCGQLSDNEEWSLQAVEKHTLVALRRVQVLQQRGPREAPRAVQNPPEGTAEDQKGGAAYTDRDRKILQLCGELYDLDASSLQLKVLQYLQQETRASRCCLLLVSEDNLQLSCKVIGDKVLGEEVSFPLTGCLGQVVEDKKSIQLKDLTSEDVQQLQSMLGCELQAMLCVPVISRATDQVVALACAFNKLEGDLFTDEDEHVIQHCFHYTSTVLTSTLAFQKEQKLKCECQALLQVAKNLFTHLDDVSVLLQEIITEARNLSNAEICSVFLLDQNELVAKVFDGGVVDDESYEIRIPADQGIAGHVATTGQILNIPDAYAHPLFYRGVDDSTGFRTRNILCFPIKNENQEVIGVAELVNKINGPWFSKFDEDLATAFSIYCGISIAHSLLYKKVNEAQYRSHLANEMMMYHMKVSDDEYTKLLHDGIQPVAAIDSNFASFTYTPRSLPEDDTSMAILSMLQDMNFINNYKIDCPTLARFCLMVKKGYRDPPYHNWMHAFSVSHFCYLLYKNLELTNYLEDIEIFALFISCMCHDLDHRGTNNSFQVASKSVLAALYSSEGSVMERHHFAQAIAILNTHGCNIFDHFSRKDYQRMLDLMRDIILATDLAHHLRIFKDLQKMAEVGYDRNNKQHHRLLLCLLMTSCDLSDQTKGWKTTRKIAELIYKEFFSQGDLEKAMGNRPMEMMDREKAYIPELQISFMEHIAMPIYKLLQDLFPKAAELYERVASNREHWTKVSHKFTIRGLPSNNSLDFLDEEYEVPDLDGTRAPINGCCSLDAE
Description: Tested compounds were dissolved and diluted in 100% DMSO to a concentration 100 fold of the final concentration in the assay. Compound dilutions (0.4 μl) were added in 384 well plates to 20 μl of incubation buffer (50 mM Tris pH 7.8, 8.3 mM MgCl2, 1.7 mM EGTA). 10 μl of hPDE2A enzyme in incubation buffer was added and the reaction was started by addition of 10 μl substrate to a final concentration of 10 μM cGMP and 0.01 μCi ^3H-cGMP. The reaction was incubated for 45 minutes at room temperature. […] After sedimentation of the beads during 30 minutes the radioactivity was measured in a Perkin Elmer Topcount scintillation counter and results were expressed as cpm. For blanc values the enzyme was omitted from the reaction and replaced by incubation buffer. Control values were obtained by addition of a final concentration of 1% DMSO instead of compound.

[2] = tested on: Apomorphine-induced agitation; assay: Reversal of Apomorphine-induced Agitation in Rats (APO); type: in vivo, rat; conditions: for SC Dose at max effect / SC Max effect (cumulative agitation score over 60 min) / SC LAD (lowest active dose): subcutaneous route; for SC Max effect (cumulative agitation score over 60 min) / PO Max effect (cumulative agitation score over 60 min): apomorphine 1.0 mg/kg i.v.; for SC LAD (lowest active dose) / PO LAD (lowest active dose): lowest dose at which ≥67% tested animals respond
Description: Apomorphine (1.0 mg/kg, i.v.)-induced agitation was scored every 5 min over the first hour after injection of apomorphine. The score system was: (3) pronounced, (2) moderate, (1) slight, and (0) absent. […] For the present purpose, the cumulative agitation score over the whole 60-min observation period was used as a measure to describe the maximum effect (Max effect).

[3] = molecular target: T2, Rat recombinant PDE10A (rPDE10A2) (Rattus norvegicus, UniProt Q9QYJ6); assay: In vitro assay PDE10A (SPA, 3H-cAMP); type: biochemical; conditions: read-out: PIC50 PDE10 (converted)
T2 construct: made in house; host or cells: Sf9 insect cells (baculovirus)
T2 sequence (Q9QYJ6 1-794): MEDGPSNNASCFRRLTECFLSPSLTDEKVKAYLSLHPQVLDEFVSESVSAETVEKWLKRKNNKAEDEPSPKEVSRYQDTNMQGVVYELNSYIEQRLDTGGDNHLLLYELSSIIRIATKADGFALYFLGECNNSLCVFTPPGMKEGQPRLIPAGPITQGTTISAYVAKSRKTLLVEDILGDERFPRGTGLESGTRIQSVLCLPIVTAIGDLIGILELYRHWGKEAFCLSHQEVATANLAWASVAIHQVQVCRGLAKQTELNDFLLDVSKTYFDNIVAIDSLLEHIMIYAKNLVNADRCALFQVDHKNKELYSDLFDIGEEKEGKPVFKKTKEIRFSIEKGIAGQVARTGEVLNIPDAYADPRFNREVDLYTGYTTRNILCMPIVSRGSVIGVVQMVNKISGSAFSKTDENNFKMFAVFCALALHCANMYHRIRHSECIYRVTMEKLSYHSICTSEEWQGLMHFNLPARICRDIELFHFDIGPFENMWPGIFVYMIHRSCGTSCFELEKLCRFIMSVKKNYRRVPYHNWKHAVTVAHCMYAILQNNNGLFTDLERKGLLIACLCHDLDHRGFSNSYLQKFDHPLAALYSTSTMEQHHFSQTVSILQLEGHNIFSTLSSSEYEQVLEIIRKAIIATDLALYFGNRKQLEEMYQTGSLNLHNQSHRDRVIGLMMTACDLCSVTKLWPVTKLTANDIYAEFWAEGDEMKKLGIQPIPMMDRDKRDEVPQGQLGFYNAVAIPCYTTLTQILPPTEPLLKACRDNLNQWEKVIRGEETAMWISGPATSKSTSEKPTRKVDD

Row | Structure (SMILES) | IC50 [1] [nM] | IC50 [3] [nM] | also measured
1 | Cc1nc2ccc(CN3CCOC(CCO)C3)cc2n2c(-c3ccccc3Cl)nnc12 (stereo not drawn) [Compound B-63] | 5.62 | 9.33 | SC Dose at max effect [2]: 10 mg/kg; SC Max effect (cumulative agitation score over 60 min) [2]: 19; SC LAD (lowest active dose) [2]: 10 mg/kg
2 | COc1ccc(Cl)c(-c2nnc3c(C)nc4ccc(CN5CCC(F)CC5)cc4n23)c1 [Compound B-97] | 14.1 | 77.6 | SC Dose at max effect [2]: 10 mg/kg; SC Max effect (cumulative agitation score over 60 min) [2]: 19; SC LAD (lowest active dose) [2]: 10 mg/kg
3 | Cc1nc2ccc(N3CCN(C)CC3)cc2n2c(-c3ccccc3Cl)nnc12 [Compound B-16, 1-(2-Chlorophenyl)-4-methyl-8-(4-methylpiperazin-1-yl)[1,2,4]triazolo[4,3-a]quinoxaline] | 5.25 | 26.9 | SC Dose at max effect [2]: 2.5 mg/kg; SC Max effect (cumulative agitation score over 60 min) [2]: 21; SC LAD (lowest active dose) [2]: > 2.5 mg/kg
4 | COc1cc(NC(=O)c2ccc3nc(C)c4nnc(-c5ccccc5Cl)n4c3c2)cc(OC)c1OC [Compound B-49] | 2.34 | 77.6 | PO Dose at Max Effect [2]: 10 mg/kg; PO Max effect (cumulative agitation score over 60 min) [2]: 24; PO LAD (lowest active dose) [2]: > 10 mg/kg
5 | CCOC(=O)c1ccc2nc(C)c3nnc(-c4ccccc4Cl)n3c2c1 [Compound B-1a, Ethyl 1-(2-chlorophenyl)-4-methyl[1,2,4]triazolo[4,3-a]quinoxaline-8-carboxylate] | 4.27 |  | PO Dose at Max Effect [2]: 2.5 mg/kg; PO Max effect (cumulative agitation score over 60 min) [2]: 22; PO LAD (lowest active dose) [2]: > 2.5 mg/kg; IC50 ([3]; -log IC50 expressed in mol/L, rPDE10A2, 60 nM cAMP): 58.9 nM
6 | Cc1nc2ccc(C(=O)NCc3ccncc3)cc2n2c(-c3ccccc3)nnc12 [Compound B-83] | 9.77 | 102 | SC Dose at max effect [2]: 2.5 mg/kg; SC Max effect (cumulative agitation score over 60 min) [2]: 29; SC LAD (lowest active dose) [2]: > 10 mg/kg
7 | CCOc1ccc(Cl)c(-c2nnc3c(C)nc4ccc(N5CCN(C)CC5)cc4n23)c1 [Compound B-102] | 18.2 | 162 | SC Dose at max effect [2]: 10 mg/kg; SC Max effect (cumulative agitation score over 60 min) [2]: 21; SC LAD (lowest active dose) [2]: > 10 mg/kg
8 | Cc1nc2ccc(NC3CCN(C)CC3)cc2n2c(-c3ccccc3Cl)nnc12 [Compound B-147] | 44.7 | 87.1 | 
9 | CCCOc1ccc(Cl)c(-c2nnc3c(C)nc4ccc(OCCc5cccnc5)cc4n23)c1 [Compound B-116] | 24.5 | 513 | 
10 | CCCOc1ccc(Cl)c(-c2nnc3c(C)nc4ccc(CN5CCC(F)CC5)cc4n23)c1 [Compound B-135] | 30.2 | 589 | 
11 | COc1cncc(-c2nnc3c(C)nc4ccc(OC(F)(F)F)cc4n23)c1 [Compound B-165] | 81.3 | 501 | 
12 | COCCNC(=O)c1ccc2nc(C)c3nnc(-c4ccccc4Cl)n3c2c1 [Compound B-37] | 0.631 | 20.4 | 
13 | Cc1nc2ccc(Br)cc2n2c(-c3cccc(Cl)c3Cl)nnc12 [Compound B-166] | 95.5 | 282 | 
14 | Cc1nc2ccc(Oc3ccncc3)cc2n2c(-c3ccccc3Cl)nnc12 [Compound B-30, 1-(2-Chlorophenyl)-4-methyl-8-(pyridin-4-yloxy)[1,2,4]triazolo[4,3-a]quinoxaline] | 5.75 | 24.5 | 
15 | Cc1nc2ccc(OCCc3cccnc3)cc2n2c(-c3cc(OC(C)C)ccc3Cl)nnc12 [Compound B-146] | 40.7 | 1020 | 
16 | CCCOc1ccc(Cl)c(-c2nnc3c(C)nc4ccc(CN5CCN(C)CC5)cc4n23)c1 [Compound B-137] | 33.1 | 1000 | 
17 | Cc1nc2ccc(Br)cc2n2c(-c3cc(OC(C)C)ccc3Cl)nnc12 [Compound B-100] | 14.8 | 1230 | 
18 | Cc1nc2ccc(CN3CCC(F)CC3)cc2n2c(-c3cc(OC(C)C)ccc3Cl)nnc12 [Compound B-134] | 30.2 | 1100 | 
19 | Cc1nc2ccc(CN3CCC(O)CC3)cc2n2c(-c3cc(OC(C)C)ccc3Cl)nnc12 [Compound B-136] | 31.6 | 1260 | 
20 | CCCCOc1ccc(Cl)c(-c2nnc3c(C)nc4ccc(CNCC5CC5)cc4n23)c1 [Compound B-152] | 50.1 | 3890 | 
21 | CCNC(=O)c1ccc2nc(C)c3nnc(-c4ccccn4)n3c2c1 [Compound B-181] | 240 | 5500 | 
22 | CCCCOc1cncc(-c2nnc3c(C)nc4ccc(Br)cc4n23)c1 [Compound B-7, 8-Bromo-1-(5-butoxypyridin-3-yl)-4-methyl[1,2,4]triazolo[4,3-a]quinoxaline] | 18.6 | 3390 | 
23 | Cc1nc2ccc(C(=O)C3CC3)cc2n2c(-c3ccccc3Cl)nnc12 [Compound B-144] | 4.47 | 31.6 | 

Row | Structure (SMILES) | IC50 [1] [nM] | IC50 [3] [nM] | also measured
24 | CCC(=O)Nc1ccc2nc(C)c3nnc(-c4ccccc4Cl)n3c2c1 [Compound B-28, N-[1-(2-Chlorophenyl)-4-methyl[1,2,4]triazolo[4,3-a]quinoxalin-8-yl]propanamide] | 2.29 | 13.2 | 
25 | CCCOc1ccc(Cl)c(-c2nnc3c(C)nc4ccc(CNc5cccnc5)cc4n23)c1 [Compound B-138] | 33.9 | 708 | 
26 | Cc1nc2ccc(CN3CCC(F)CC3)cc2n2c(-c3cncc(OCC4CC4)c3)nnc12 [Compound B-199] | 89.1 | 3890 | 
27 | Cc1nc2ccc(C(=O)NCc3cc(F)ccn3)cc2n2c(-c3ccccc3Cl)nnc12 [Compound B-31] | 0.204 | 8.13 | 
28 | Cc1nc2ccc(C(N3CCOCC3)C(F)(F)F)cc2n2c(-c3ccccc3Cl)nnc12 (stereo not drawn) [Compound B-22, 1-(2-Chlorophenyl)-4-methyl-8-(2,2,2-trifluoro-1-morpholin-4-ylethyl) [1,2,4]triazolo[4,3-a]quinoxaline] | 7.76 | 89.1 | 
29 | CCCCOc1ccc(Cl)c(-c2nnc3c(C)nc4ccc(CNC5CCC5)cc4n23)c1 [Compound B-126] | 28.2 | 2450 | 
30 | Cc1cncc(-c2nnc3c(C)nc4ccc(C(F)(F)F)cc4n23)c1 [Compound B-162] | 67.6 | 871 | 
31 | CCCOc1cncc(-c2nnc3c(C)nc4ccc(CNC5CCC5)cc4n23)c1 [Compound B-209] | 302 | > 10000 | 
32 | CCNC(c1ccc2nc(C)c3nnc(-c4ccccc4Cl)n3c2c1)C(F)(F)F (stereo not drawn) [Compound B-64] | 5.75 | 30.2 | 
33 | Cc1nc2ccc(COc3ccccc3)cc2n2c(-c3ccccc3)nnc12 [Compound B-98] | 14.5 | 191 | 
34 | CCCOc1ccc(Cl)c(-c2nnc3c(C)nc4ccc(OC[C@@H]5CCCN5)cc4n23)c1 [Compound B-161] | 60.3 | 8710 | 
35 | CCNC(=O)c1ccc2nc(C)c3nnc(-c4ccc(C)nc4)n3c2c1 [Compound B-182] | 240 | 4170 | 
36 | CCCCOc1ccc(Cl)c(-c2nnc3c(C)nc4ccc(OCCc5cccnc5)cc4n23)c1 [Compound B-130] | 28.8 | 977 | 
37 | COc1ccc2nc(C)c3nnc(-c4ccccc4OC(F)(F)F)n3c2c1 [Compound B-164] | 69.2 | 2510 | 
38 | CCCCOc1ccc(Cl)c(-c2nnc3c(C)nc4ccc(CN5CCC(F)CC5)cc4n23)c1 [Compound B-132] | 29.5 | 1780 | 
39 | CCCCOc1cncc(-c2nnc3c(C)nc4ccc(CN5CCCC5)cc4n23)c1 [Compound B-206] | 135 | > 10000 | 
40 | Cc1nc2ccc(N)cc2n2c(-c3ccccc3Cl)nnc12 [Compound B-27, 1-(2-Chlorophenyl)-4-methyl[1,2,4]triazolo[4,3-a]quinoxalin-8-amine] | 2.34 | 29.5 | 
41 | CCCCOc1ccc(Cl)c(-c2nnc3c(C)nc4ccc(CN5CCCC5)cc4n23)c1 [Compound B-79] | 8.13 | 1910 | 
42 | CCCCOc1ccc(Cl)c(-c2nnc3c(C)nc4ccc(CN5CCN(C)CC5)cc4n23)c1 [Compound B-160] | 60.3 | 2450 | 
43 | CCOCc1cncc(-c2nnc3c(C)nc4ccc(CN(C)C)cc4n23)c1 [Compound B-212] | 355 | 6170 | 
44 | Cc1nc2ccc(CN3CCOCC3)cc2n2c(-c3cncc(OCCCF)c3)nnc12 [Compound B-196] | 64.6 | 8710 | 
45 | Cc1nc2ccc(C(=O)OCCc3ccccc3)cc2n2c(-c3ccccc3)nnc12 [Compound B-122] | 27.5 | 331 | 
